Measurements: patent US6355799B1, “Substituted benzene compounds, process for their preparation, and herbicidal and defoliant compositions containing them” (ISK Americas Incorporated, priority 1997, dated 2002)

Legend:
Assay type in all cases: in vivo
[1] = tested on: upland rice (Oryza sp., var. Tebonnet, RICE); test: Pre-emerge test, crop safety; details: crop damage rating 0-100, 14 days after application
Method in brief: (§1)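 Plants grown in 10 cm pots of sandy loam mix received acetone-dissolved compounds through a moving flat-fan nozzle. Doses ranged from 15 to 1000 g ai/ha. Pre-emerge pots were seeded one day earlier, post-emerge pots 8–21 days earlier. Fourteen days on, each pot was graded 0–100 for damage.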

[2] = tested on: field corn (Zea mays L., var. Dekalb 535, CORN); test: Pre-emerge test, crop safety; details: crop damage rating 0-100, 14 days after application
Method in brief: as §1

[3] = tested on: lambsquarters (Chenopodium album, CHEAL); test: Pre-emerge test, greenhouse herbicide activity screening; details: phytotoxicity rating 0-100, 14 days after application
Description: (§2) A standard greenhouse herbicide activity screening system was used to evaluate the herbicidal efficacy and crop safety of these test compounds. Seven broadleaf weed species including redroot pigweed (Amaranthus retroflexus, AMARE, velvetleaf (Abutilon theophrasti, ABUTH), sicklepod (Cassia obtusifolia, CASOB), ivyleaf morningglory (Ipomoea hederacea, IPOHE), lambsquarters (Chenopodium album, CHEAL), common ragweed (Ambrosia artemisizfolia L., AMBEL), and cocklebur (Xanthium strumarium, XANST) were used as test species. Four grass weed species including green foxtail (Setaria viridis, SETVI), barnyardgrass (Echinochloa crus-galli, ECHCG), johnsongrass (Sorghum halepense, SORHA), and large crabgrass (Digitaria sanguinalis, DIGSA) were also used. In addition, three crop species, field corn (Zea mays L., var. Dekalb 535, CORN), soybean (Glycine max L., var. Pella 86, SOY), and is upland rice (Oryza sp., var. Tebonnet, RICE) were included.
(§3) All plants were grown in 10 cm square plastic pots which were filled with a sandy loam soil mix. For pre-emerge tests, seeds were planted one day prior to application of the test compounds. For post-emerge tests, seeds were planted 8-21 days prior to the test to allow emergence and good foliage development prior to application of the test substances. At the time of the post-emerge application, plants of all species were usually at the 2-3 leaf stage of development.
(§4) All test compounds Were dissolved in acetone and applied to the test units in a volume of 187 l /ha. Test materials were applied at rates ranging from 15 g ai/ha to 1000 g ai/ha using a track sprayer equipped with a TJ8001E even flow flat fan spray nozzle. Plants were arranged on a shelf so that the top of the canopy (post-emerge) or top of the soil surface (pre-emerge) was 40-45 cm below the nozzle. Pressurized air was used to force the test solution through the nozzle as it was mechanically advanced (via electrically driven chain drive) over the top of all test plants/pots. This application simulates a typical commercial field herbicide application.
(§5) In the post-emerge test, a commercial non-ionic surfactant was also included (0.25% v/v) to enhance wetting of the leaf surfaces of target plants. Immediately after application, test units of the pre-emerge applications were watered at the soil surface to incorporate the test materials. Subsequently, these test units were bottom-watered. Post-emerge test units were always bottom-watered.
(§6) At 14 days after application of the test materials, phytotoxicity ratings were recorded. A rating scale of 0-100 was used as previously described in Research Methods in Weed Science, 2nd edition, B. Truelove, Ed., Southern Weed Science Society, Auburn University, Auburn, Ala. 1977. Briefly, “0” corresponds to no damage and “100” corresponds to complete death of all plants in the test unit. This scale was used both to determine efficacy against weed species and damage to crop species. Herbicide activity data for various compounds of this invention, which are shown by compound No. in Tables 1-8, are shown in Tables 11 and 12.

[4] = tested on: green foxtail (Setaria viridis, SETVI); test: as above; details: phytotoxicity rating 0-100, 14 days after application
Description: as §2, §3, §4, §5, §6

[5] = tested on: velvetleaf (Abutilon theophrasti, ABUTH); test: as above; details: phytotoxicity rating 0-100, 14 days after application
Description: as §2, §3, §4, §5, §6

[6] = tested on: ivyleaf morningglory (Ipomoea hederacea, IPOHE); test: as above; details: phytotoxicity rating 0-100, 14 days after application
Description: as §2, §3, §4, §5, §6

[7] = tested on: sicklepod (Cassia obtusifolia, CASOB); test: as above; details: phytotoxicity rating 0-100, 14 days after application
Description: as §2, §3, §4, §5, §6

[8] = tested on: barnyardgrass (Echinochloa crus-galli, ECHCG); test: as above; details: phytotoxicity rating 0-100, 14 days after application
Description: as §2, §3, §4, §5, §6

[9] = tested on: large crabgrass (Digitaria sanguinalis, DIGSA); test: as above; details: phytotoxicity rating 0-100, 14 days after application
Description: as §2, §3, §4, §5, §6

[10] = tested on: lambsquarters (Chenopodium album, CHEAL); test: Post-emerge test, greenhouse herbicide activity screening; details: post-emerge, 14 days after application, rating scale 0-100
Description: as §2, §3, §4, §5, §6

[11] = tested on: green foxtail (Setaria viridis, SETVI); test: as above; details: post-emerge, 14 days after application, rating scale 0-100
Description: as §2, §3, §4, §5, §6

[12] = tested on: velvetleaf (Abutilon theophrasti, ABUTH); test: as above; details: post-emerge, 14 days after application, rating scale 0-100
Description: as §2, §3, §4, §5, §6

[13] = tested on: ivyleaf morningglory (Ipomoea hederacea, IPOHE); test: as above; details: post-emerge, 14 days after application, rating scale 0-100
Description: as §2, §3, §4, §5, §6

[14] = tested on: sicklepod (Cassia obtusifolia, CASOB); test: as above; details: post-emerge, 14 days after application, rating scale 0-100
Description: as §2, §3, §4, §5, §6

[15] = tested on: redroot pigweed (Amaranthus retroflexus, AMARE); test: as above; details: post-emerge, 14 days after application
Description: as §2, §3, §4, §5, §6

[16] = tested on: barnyardgrass (Echinochloa crus-galli, ECHCG); test: as above; details: post-emerge, 14 days after application, rating scale 0-100
Description: as §2, §3, §4, §5, §6

[17] = tested on: large crabgrass (Digitaria sanguinalis, DIGSA); test: as above; details: post-emerge, 14 days after application, rating scale 0-100
Description: as §2, §3, §4, §5, §6

[18] = tested on: upland rice (Oryza sp., var. Tebonnet, RICE); test: Post-emerge test, crop safety; details: post-emerge, 14 days after application, rating scale 0-100
Method in brief: (§7)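 Each test used a mechanized track sprayer delivering 187 l/ha of acetone solution at 15–1000 g ai/ha. Post-emerge foliage at 2–3 leaves was treated with added 0.25% v/v non-ionic surfactant and bottom-watered only. Injury was assessed on day 14, where 100 means total kill.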

[19] = tested on: field corn (Zea mays L., var. Dekalb 535, CORN); test: Post-emerge test, crop safety; details: post-emerge, 14 days after application, rating scale 0-100
Method in brief: as §7

[20] = tested on: redroot pigweed (Amaranthus retroflexus, AMARE); test: Pre-emerge test, greenhouse herbicide activity screening; details: phytotoxicity rating 0-100, 14 days after application
Method in brief: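 Herbicidal damage is scored 0 (none) to 100 (complete plant death) two weeks after a simulated field spray. Rates span 15–1000 g ai/ha, delivered in acetone at 187 l/ha. For post-emergence treatments, plants have 2–3 leaves and the spray carries 0.25% v/v non-ionic surfactant.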

[21] = 63 g ai/ha, rating scale 0-100 (0 no damage, 100 complete death)
[22] = 250 g ai/ha, rating scale 0-100

SMILES | Pre-emerge Herbicidal Activity RICE ([1]; 63 g ai/ha) | Pre-emerge Herbicidal Activity RICE ([1]; 250 g ai/ha) | Pre-emerge Herbicidal Activity CORN ([2]; 63 g ai/ha) | Pre-emerge Herbicidal Activity CORN ([2]; 250 g ai/ha) | Pre-emerge Herbicidal Activity CHEAL ([3]; 63 g ai/ha) | Pre-emerge Herbicidal Activity CHEAL ([3]; 250 g ai/ha) | Pre-emerge Herbicidal Activity SETVI ([4]; 63 g ai/ha) | Pre-emerge Herbicidal Activity SETVI ([4]; 250 g ai/ha) | Pre-emerge Herbicidal Activity ABUTH ([5]; 63 g ai/ha) | Pre-emerge Herbicidal Activity ABUTH ([5]; 250 g ai/ha) | Pre-emerge Herbicidal Activity IPOHE ([6]; 63 g ai/ha) | Pre-emerge Herbicidal Activity IPOHE ([6]; 250 g ai/ha) | Pre-emerge Herbicidal Activity CASOB ([7]; 63 g ai/ha) | Pre-emerge Herbicidal Activity CASOB ([7]; 250 g ai/ha) | Pre-emerge Herbicidal Activity ECHCG ([8]; 63 g ai/ha) | Pre-emerge Herbicidal Activity ECHCG ([8]; 250 g ai/ha) | Pre-emerge Herbicidal Activity DIGSA ([9]; 63 g ai/ha) | Pre-emerge Herbicidal Activity DIGSA ([9]; 250 g ai/ha) | phytotoxicity rating CHEAL ([10]; 63 g ai/ha) | phytotoxicity rating CHEAL ([10]; 250 g ai/ha) | other results
COc1c(Cl)cc(F)c(-n2c(=O)cc(C(F)(F)F)n(C)c2=O)c1NC(=O)OCc1cc(C)ccc1C [4-38] | 35 | 60 | 10 | 20 | 100 | 100 | 100 | 100 | 80 | 100 | 60 | 50 | 30 | 60 | 30 | 60 | 95 | 100 | 100 | 100 | phytotoxicity rating SETVI ([11]; 63 g ai/ha): 60; phytotoxicity rating SETVI ([11]; 250 g ai/ha): 80; phytotoxicity rating ABUTH ([12]; 63 g ai/ha): 100; phytotoxicity rating ABUTH ([12]; 250 g ai/ha): 100; phytotoxicity rating IPOHE ([13]; 63 g ai/ha): 100; phytotoxicity rating IPOHE ([13]; 250 g ai/ha): 100; phytotoxicity rating CASOB ([14]; 63 g ai/ha): 90; phytotoxicity rating CASOB ([14]; 250 g ai/ha): 100; phytotoxicity rating AMARE [15, 21]: 100; phytotoxicity rating AMARE [15, 22]: 100; phytotoxicity rating ECHCG ([16]; 63 g ai/ha): 50; phytotoxicity rating ECHCG ([16]; 250 g ai/ha): 50; phytotoxicity rating DIGSA ([17]; 63 g ai/ha): 40; phytotoxicity rating DIGSA ([17]; 250 g ai/ha): 40; phytotoxicity rating RICE (crop damage) ([18]; 63 g ai/ha): 35; phytotoxicity rating RICE (crop damage) ([18]; 250 g ai/ha): 50; phytotoxicity rating CORN (crop damage) ([19]; 63 g ai/ha): 40; phytotoxicity rating CORN (crop damage) ([19]; 250 g ai/ha): 85; Pre-emerge Herbicidal Activity AMARE ([20]; 63 g ai/ha): 100; Pre-emerge Herbicidal Activity AMARE ([20]; 250 g ai/ha): 100
COc1c(Cl)cc(F)c(-n2c(=O)cc(C(F)(F)F)n(C)c2=O)c1NC(=O)OCc1cc(F)ccc1F [4-39] | 80 | 80 | 70 | 90 | 100 | 100 | 100 | 100 | 100 | 100 | 80 | 100 | 30 | 90 | 60 | 80 | 100 | 100 | 100 | 100 | phytotoxicity rating SETVI ([11]; 63 g ai/ha): 80; phytotoxicity rating SETVI ([11]; 250 g ai/ha): 90; phytotoxicity rating ABUTH ([12]; 63 g ai/ha): 100; phytotoxicity rating ABUTH ([12]; 250 g ai/ha): 100; phytotoxicity rating IPOHE ([13]; 63 g ai/ha): 100; phytotoxicity rating IPOHE ([13]; 250 g ai/ha): 100; phytotoxicity rating CASOB ([14]; 63 g ai/ha): 100; phytotoxicity rating CASOB ([14]; 250 g ai/ha): 100; phytotoxicity rating AMARE [15, 21]: 100; phytotoxicity rating AMARE [15, 22]: 100; phytotoxicity rating ECHCG ([16]; 63 g ai/ha): 60; phytotoxicity rating ECHCG ([16]; 250 g ai/ha): 90; phytotoxicity rating DIGSA ([17]; 63 g ai/ha): 50; phytotoxicity rating DIGSA ([17]; 250 g ai/ha): 80; phytotoxicity rating RICE (crop damage) ([18]; 63 g ai/ha): 60; phytotoxicity rating RICE (crop damage) ([18]; 250 g ai/ha): 60; phytotoxicity rating CORN (crop damage) ([19]; 63 g ai/ha): 70; phytotoxicity rating CORN (crop damage) ([19]; 250 g ai/ha): 100; Pre-emerge Herbicidal Activity AMARE ([20]; 63 g ai/ha): 100; Pre-emerge Herbicidal Activity AMARE ([20]; 250 g ai/ha): 100
